This passage reports IC50 and EC50 results from patent publication US10669272B2, “Substituted naphthyridinone compounds useful as T cell activators” (BRISTOL-MYERS SQUIBB COMPANY, priority 2018, dated 2020).

Each structure is given as a SMILES string. pEC50, pIC50: −log10 of the molar value. Like-named read-outs stand apart in the source and are kept apart here.

Test [1] addresses T1, human DGKα (Homo sapiens, UniProt P23743).
T1 construct: TVMV protease cleavage site (C); Hexa-His (C); made in house; host or cells: Sf9 insect cells (baculovirus, Bac-to-Bac)
The test can be described thus: DGKα LIPGLO assay (extruded liposome substrate), in vitro DGK inhibition. Type of test: biochemical. Conditions: liposome (LIPGLO) assay; read-out: DGKa LIPGLO IC50.

For test [2], the system named is Human venous whole blood. Description: Human whole blood IFN-γ assay.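 Note: blood from healthy donors exposed to compound for 1 h before stimulation with anti-CD3 and anti-CD28 at 1 µg/mL each, IFN-γ quantified in supernatant by AlphaLISA.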 Type of test: cell-based. Conditions: human whole blood, normalized to 3 μM reference compound with anti-CD3 plus anti-CD28 as 100% activation, read-out: INFg Whole Blood Normalized Agonist EC50.
Description: Human Whole Blood IFN-γ Assay
Human venous whole blood (22.5 μL per well), obtained from healthy donors, was pre-treated with compounds for one hour at 37° C. in a humidified 95% air/5% CO2 incubator. The blood was stimulated with 2.5 μL anti-human CD3 and anti-CD28 mAb at a final concentration of 1 μg/mL each for 24 hours at 37° C. IFN-γ in the supernatants was measured using AlphLISA kit (Cat # AL217).
For test [3], the target named is T2, human DGKζ (Homo sapiens, UniProt Q13574).
T2 construct: TVMV protease cleavage site (C); Hexa-His (C); made in house; host or cells: Sf9 insect cells (baculovirus, Bac-to-Bac)
T2 sequence (Q13574 with tags, fused parts or gaps isoform Q13574-4): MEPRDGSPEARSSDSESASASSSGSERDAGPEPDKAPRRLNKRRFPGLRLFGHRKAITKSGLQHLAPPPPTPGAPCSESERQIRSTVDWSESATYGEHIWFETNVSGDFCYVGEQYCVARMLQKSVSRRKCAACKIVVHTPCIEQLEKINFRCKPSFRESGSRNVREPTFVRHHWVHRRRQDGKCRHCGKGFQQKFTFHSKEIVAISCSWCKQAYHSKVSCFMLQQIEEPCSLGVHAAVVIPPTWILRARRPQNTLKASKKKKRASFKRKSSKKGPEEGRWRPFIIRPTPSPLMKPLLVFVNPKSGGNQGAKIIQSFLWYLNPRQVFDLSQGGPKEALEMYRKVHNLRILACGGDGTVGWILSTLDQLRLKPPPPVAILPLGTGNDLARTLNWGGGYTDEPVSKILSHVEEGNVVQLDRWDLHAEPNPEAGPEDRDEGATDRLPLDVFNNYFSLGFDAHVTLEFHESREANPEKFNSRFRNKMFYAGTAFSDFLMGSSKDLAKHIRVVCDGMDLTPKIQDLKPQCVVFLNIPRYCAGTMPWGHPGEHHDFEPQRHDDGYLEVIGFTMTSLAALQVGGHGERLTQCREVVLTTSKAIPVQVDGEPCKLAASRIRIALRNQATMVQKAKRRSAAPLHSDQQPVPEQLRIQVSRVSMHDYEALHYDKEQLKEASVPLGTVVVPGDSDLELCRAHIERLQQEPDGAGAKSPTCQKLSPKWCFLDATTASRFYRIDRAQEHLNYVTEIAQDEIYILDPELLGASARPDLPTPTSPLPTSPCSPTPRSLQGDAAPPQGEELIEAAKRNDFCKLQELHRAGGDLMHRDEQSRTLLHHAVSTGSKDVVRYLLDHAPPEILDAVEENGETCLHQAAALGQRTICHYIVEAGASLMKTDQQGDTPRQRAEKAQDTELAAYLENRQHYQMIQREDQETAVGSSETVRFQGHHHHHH
Description: DGKζ LIPGLO assay (extruded liposome substrate), in vitro DGK inhibition. Type of test: biochemical. The note with it: liposome (LIPGLO) assay; read-out: DGKz LIPGLO IC50.

T1 sequence (P23743 with tags, fused parts or gaps): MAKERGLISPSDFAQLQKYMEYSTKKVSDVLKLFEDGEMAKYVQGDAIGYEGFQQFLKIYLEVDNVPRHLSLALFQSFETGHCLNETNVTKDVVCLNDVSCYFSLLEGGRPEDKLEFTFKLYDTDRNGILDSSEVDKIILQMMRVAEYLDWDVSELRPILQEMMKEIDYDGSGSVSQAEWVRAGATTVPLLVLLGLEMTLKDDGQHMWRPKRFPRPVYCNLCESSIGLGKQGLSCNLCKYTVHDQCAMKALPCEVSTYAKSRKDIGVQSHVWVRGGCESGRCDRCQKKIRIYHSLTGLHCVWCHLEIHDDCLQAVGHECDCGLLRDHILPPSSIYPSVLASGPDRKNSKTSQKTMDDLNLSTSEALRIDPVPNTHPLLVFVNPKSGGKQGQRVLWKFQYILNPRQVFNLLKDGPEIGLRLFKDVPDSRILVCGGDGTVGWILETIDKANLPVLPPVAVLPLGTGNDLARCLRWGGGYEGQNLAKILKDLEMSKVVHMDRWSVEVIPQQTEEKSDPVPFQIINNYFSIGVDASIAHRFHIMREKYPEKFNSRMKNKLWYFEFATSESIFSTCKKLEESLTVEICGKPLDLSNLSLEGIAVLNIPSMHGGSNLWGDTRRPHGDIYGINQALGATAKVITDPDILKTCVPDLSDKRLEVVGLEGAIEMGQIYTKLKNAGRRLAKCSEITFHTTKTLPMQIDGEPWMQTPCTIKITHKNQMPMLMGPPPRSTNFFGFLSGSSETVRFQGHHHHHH

The pIC50 is −log10 of the IC50, conventionally taken in molar units. The term pEC50 denotes the negative decadic logarithm of the EC50, by convention in mol/L. Turning to `CCC(c1ccc(OC(F)(F)F)cc1)N1C[C@H](C)N(c2cc(=O)n(C)c3ccc(C#N)nc23)C[C@H]1CC` (single isomer, unassigned) [Example 1198], the negative logarithm of the IC50 (pIC50) in test [1] was 6.00; in test [3], 5.96. Besides, in test [2], the pEC50 is 5.77.

Consider `CCC(c1ccc(OC(F)(F)F)cc1)N1C[C@H](C)N(c2cc(=O)n(C)c3ccc(C#N)nc23)C[C@H]1CC` (single isomer, unassigned) [Example 1199], for which the pIC50 is 7.70 in test [1] and 7.43 in test [3]. Further, in test [2], the negative logarithm of the EC50 (pEC50) is 7.47.

`CC(c1ccc(C2CC2)cc1F)N1C[C@H](C)N(c2cc(=O)n(C)c3ccc(C#N)nc23)C[C@H]1C` (single isomer, unassigned) [Example 1200]: the pIC50 was 6.60 in test [1] and 7.28 in test [3]. Besides, in test [2] (Homo sapiens, 24 h), the pEC50 is 6.64.

On to `CC(c1ccc(C2CC2)cc1F)N1C[C@H](C)N(c2cc(=O)n(C)c3ccc(C#N)nc23)C[C@H]1C` (single isomer, unassigned) [Example 1201], for which the negative-log IC50 (pIC50) in test [1] is 4.89; in test [3] it was 5.47. Also, the pEC50 in test [2] (Homo sapiens, 24 h) was 5.25.

Regarding `CC(c1ccc(OC(F)(F)F)c(F)c1)N1C[C@H](C)N(c2cc(=O)n(C)c3ccc(C#N)nc23)C[C@H]1C` (single isomer, unassigned) [Example 1204], the pIC50 in test [1] is 6.92; in test [3] it was 6.33. Further, in test [2], the pEC50 was 6.27.

For `CC(c1ccc(OC(F)(F)F)c(F)c1)N1C[C@H](C)N(c2cc(=O)n(C)c3ccc(C#N)nc23)C[C@H]1C` (single isomer, unassigned) [Example 1205], the negative logarithm of the IC50 (pIC50) in test [1] was 5.77; in test [3] it was 5.57. The pEC50 in test [2] was 5.10.

Consider `CC(c1cccc(OC(F)(F)F)c1F)N1C[C@H](C)N(c2cc(=O)n(C)c3ccc(C#N)nc23)C[C@H]1C` (single isomer, unassigned) [Example 1208], for which the figures for the pIC50 in test [1] and in test [3] were 5.96 and 7.43, respectively. Also, the pEC50 in test [2] is 6.00.

Regarding `CC(c1cccc(OC(F)(F)F)c1F)N1C[C@H](C)N(c2cc(=O)n(C)c3ccc(C#N)nc23)C[C@H]1C` (single isomer, unassigned) [Example 1209], the values for the pIC50 in test [1] and in test [3] were 4.70 and 5.92, respectively. In addition, the pEC50 in test [2] was 4.92.

For the compound `CC(c1cc(F)cc(OC(F)(F)F)c1)N1C[C@H](C)N(c2cc(=O)n(C)c3ccc(C#N)nc23)C[C@H]1C` (single isomer, unassigned) [Example 1210], the negative logarithm of the IC50 (pIC50) in test [1] was 5.03; in test [3], 7.74. Moreover, in test [2], the pEC50 was 6.06.

On to `CC(c1cc(F)cc(OC(F)(F)F)c1)N1C[C@H](C)N(c2cc(=O)n(C)c3ccc(C#N)nc23)C[C@H]1C` (single isomer, unassigned) [Example 1211], for which the pIC50 is 4.89 in test [1] and 6.17 in test [3]. Further, the pEC50 in test [2] was 5.08.

Consider `CC(c1ccccc1OC(F)(F)F)N1C[C@H](C)N(c2cc(=O)n(C)c3ccc(C#N)nc23)C[C@H]1C` (single isomer, unassigned) [Example 1212], for which the values for the pIC50 in test [1] and in test [3] were 4.64 and 6.96, respectively. In test [2] (Homo sapiens, 24 h), the pEC50 is 4.96.

With `CC(c1ccccc1OC(F)(F)F)N1C[C@H](C)N(c2cc(=O)n(C)c3ccc(C#N)nc23)C[C@H]1C` (single isomer, unassigned) [Example 1213], the results for the negative logarithm of the IC50 (pIC50) in test [1] and in test [3] were 4.25 and 5.44, respectively. Besides, the pEC50 in test [2] was 5.08.

`CC(c1ccc(C2CC2)cc1)N1C[C@H](C)N(c2cc(=O)n(C)c3ccc(C#N)nc23)C[C@H]1C` (single isomer, unassigned) [Example 1214]: the pIC50 in test [1] and in test [3] was 7.12 throughout. In addition, the pEC50 in test [2] was 6.66.

In the case of `CC(c1ccc(C2CC2)cc1)N1C[C@H](C)N(c2cc(=O)n(C)c3ccc(C#N)nc23)C[C@H]1C` (single isomer, unassigned) [Example 1215], the pIC50 was 6.14 in test [1] and 6.17 in test [3]. Moreover, the pEC50 in test [2] is 5.14.

`CC(c1cccc2c1OC(F)(F)O2)N1C[C@H](C)N(c2cc(=O)n(C)c3ccc(C#N)nc23)C[C@H]1C` (single isomer, unassigned) [Example 1216]: the pIC50 in test [1] was 4.08; in test [3] it was 6.82. In addition, in test [2], the pEC50 is 5.74.

In the case of `CC(c1cccc2c1OC(F)(F)O2)N1C[C@H](C)N(c2cc(=O)n(C)c3ccc(C#N)nc23)C[C@H]1C` (single isomer, unassigned) [Example 1217], the pIC50 is 4.43 in test [1] and 5.68 in test [3]. For the same compound, the pEC50 in test [2] was 5.34.

On to `CCC(c1ccc(C2CC2)cc1)N1C[C@H](C)N(c2cc(=O)n(C)c3ccc(C#N)nc23)C[C@H]1C` (single isomer, unassigned) [Example 1220], for which the negative-log IC50 (pIC50) in test [1] was 6.96; in test [3], 7.02. Besides, the pEC50 in test [2] is 6.92.

With `CCC(c1ccc(C2CC2)cc1)N1C[C@H](C)N(c2cc(=O)n(C)c3ccc(C#N)nc23)C[C@H]1C` (single isomer, unassigned) [Example 1221], the negative logarithm of the IC50 (pIC50) is 6.07 in test [1] and 5.57 in test [3]. For the same compound, in test [2], the pEC50 is 5.38.

With `CC(c1ccc(OC(F)F)cn1)N1C[C@H](C)N(c2cc(=O)n(C)c3ccc(C#N)nc23)C[C@H]1C` (single isomer, unassigned) [Example 1224], the pIC50 in test [1] was 7.39; in test [3], 5.85. The pEC50 in test [2] was 5.74.

Regarding `CC(c1ccc(OC(F)F)cn1)N1C[C@H](C)N(c2cc(=O)n(C)c3ccc(C#N)nc23)C[C@H]1C` (single isomer, unassigned) [Example 1225], the pIC50 in test [1] was 6.82; in test [3], 5.92. Moreover, in test [2], the pEC50 was 5.11.

For the compound `CC(c1ccc(C#N)cc1F)N1C[C@H](C)N(c2cc(=O)n(C)c3ccc(C#N)nc23)C[C@H]1C` (single isomer, unassigned) [Example 1226], the pIC50 in test [1] is 6.12; in test [3], 5.77. Besides, the pEC50 in test [2] is 5.06.

For the compound `CC(c1ccc(C#N)cc1F)N1C[C@H](C)N(c2cc(=O)n(C)c3ccc(C#N)nc23)C[C@H]1C` (single isomer, unassigned) [Example 1227], the pIC50 in test [1] was 7.29; in test [3] it was 6.96. In addition, the pEC50 in test [2] is 6.17.

As for `CC(c1cc(OC(F)F)ccc1F)N1C[C@H](C)N(c2cc(=O)n(C)c3ccc(C#N)nc23)C[C@H]1C` (single isomer, unassigned) [Example 1229], the results for the pIC50 in test [1] and in test [3] were 6.52 and 6.80, respectively. Further, the pEC50 in test [2] (Homo sapiens, 24 h) is 6.29.

For `COc1cc(C(C)N2C[C@H](C)N(c3cc(=O)n(C)c4ccc(C#N)nc34)C[C@H]2C)ccc1F` (single isomer, unassigned) [Example 1231], the pIC50 in test [1] was 5.42; in test [3] it was 6.96. In addition, the pEC50 in test [2] was 5.92.

Take `COc1cc(C(C)N2C[C@H](C)N(c3cc(=O)n(C)c4ccc(C#N)nc34)C[C@H]2C)ccc1F` (single isomer, unassigned) [Example 1232]: the pIC50 is 4.48 in test [1] and 5.85 in test [3]. The pEC50 in test [2] was 4.70.

Take `CC(C)c1ccc(C(C)N2C[C@H](C)N(c3cc(=O)n(C)c4ccc(C#N)nc34)C[C@H]2C)cc1` (single isomer, unassigned) [Example 1233]: the figures for the pIC50 in test [1] and in test [3] were 6.54 and 7.00, respectively. For the same compound, the pEC50 in test [2] was 6.42.

`CC(C)c1ccc(C(C)N2C[C@H](C)N(c3cc(=O)n(C)c4ccc(C#N)nc34)C[C@H]2C)cc1` (single isomer, unassigned) [Example 1234]: the pIC50 was 5.66 in test [1] and 5.85 in test [3]. For the same compound, the negative logarithm of the EC50 (pEC50) in test [2] is 5.27.

On to `COc1cc(F)ccc1C(C)N1C[C@H](C)N(c2cc(=O)n(C)c3ccc(C#N)nc23)C[C@H]1C` (single isomer, unassigned) [Example 1236], for which the values for the pIC50 in test [1] and in test [3] were 4.96 and 7.37, respectively. Further, the pEC50 in test [2] is 5.89.

As for `COc1cc(F)ccc1C(C)N1C[C@H](C)N(c2cc(=O)n(C)c3ccc(C#N)nc23)C[C@H]1C` (single isomer, unassigned) [Example 1237], the values for the pIC50 in test [1] and in test [3] were 5.21 and 6.24, respectively. Moreover, the pEC50 in test [2] was 4.92.

As for `CC(c1ccc(-n2cncn2)cc1)N1C[C@H](C)N(c2cc(=O)n(C)c3ccc(C#N)nc23)C[C@H]1C` (single isomer, unassigned) [Example 1238], the negative logarithm of the IC50 (pIC50) is 6.70 in test [1] and 5.49 in test [3]. The pEC50 in test [2] is 5.01.

For the compound `CC(c1ccc(-n2cncn2)cc1)N1C[C@H](C)N(c2cc(=O)n(C)c3ccc(C#N)nc23)C[C@H]1C` (single isomer, unassigned) [Example 1239], the pIC50 was 4.59 in test [1] and 4.64 in test [3]. Further, the pEC50 in test [2] is 4.70.

`COc1cc(F)c(C(C)N2C[C@H](C)N(c3cc(=O)n(C)c4ccc(C#N)nc34)C[C@H]2C)cc1OC` (single isomer, unassigned) [Example 1246]: the pIC50 was 4.96 in test [1] and 7.00 in test [3]. Besides, in test [2], the pEC50 was 5.68.

As to `COc1cc(F)c(C(C)N2C[C@H](C)N(c3cc(=O)n(C)c4ccc(C#N)nc34)C[C@H]2C)cc1OC` (single isomer, unassigned) [Example 1247], the pIC50 in test [1] is 4.62; in test [3] it was 5.13. The pEC50 in test [2] is 4.70.

`CC(c1ccc(C2(C#N)CC2)cc1F)N1C[C@H](C)N(c2cc(=O)n(C)c3ccc(C#N)nc23)C[C@H]1C` (single isomer, unassigned) [Example 1251]: the results for the pIC50 in test [1] and in test [3] were 5.80 and 6.60, respectively. Also, in test [2] (Homo sapiens, 24 h), the pEC50 was 5.41.
